Measured values from patent publication US20240238423A9, “TETRAHYDROISOQUINOLINE HETEROBIFUNCTIONAL BCL-XL DEGRADERS” (Treeline Biosciences, Inc., priority 2022, published 2024).
Read-outs that look alike come from different tables or passages of the source.

Target: T1, Human BCL-XL protein (N-terminal HiBiT tagged BCL-XL in HT1080 cells) (Homo sapiens, UniProt Q07817)
T1 construct: expressed in transfected cells; host or cells: HT-1080 (ATCC CCL-121), stably transduced with lentivirus pLV-UBC-N-HiBiT-BCL-XL-PGK-puro and selected with puromycin
T1 sequence (Q07817 whole entry): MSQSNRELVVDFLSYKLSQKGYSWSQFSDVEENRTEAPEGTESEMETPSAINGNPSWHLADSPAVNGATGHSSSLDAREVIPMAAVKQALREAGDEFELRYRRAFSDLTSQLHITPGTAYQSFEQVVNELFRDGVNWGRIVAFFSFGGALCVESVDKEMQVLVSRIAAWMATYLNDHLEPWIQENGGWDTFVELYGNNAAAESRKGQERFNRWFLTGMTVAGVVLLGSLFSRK
Assay: HiBiT based degradation assay
Type: cell-based
Settings: HT1080 cells expressing HiBiT-BCL-XL; for Ymin (24 h) / Ymin (6 h): BCL-XL degradation normalized with DMSO control; for DC50: BCL-XL degradation
In short: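 HT1080 cells stably transduced by lentivirus with N-terminally HiBiT-tagged human BCL-XL and kept under 1 μg/mL puromycin selection were seeded at three thousand cells per well in 40 μL RPMI 1640 into 384-well plates pre-spotted with compounds across a concentration range. Luminescence was read on a PHERAstar FSX, normalized to DMSO, and fitted with a four-parameter logistic model.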

Row | Compound | Ymin (24 h) | DC50 (24 h, read-out: EC50 (24 h)) [nM] | Ymin (6 h) | DC50 (6 h, read-out: EC50 (6 h)) [nM]
1 | Cc1cc(O[C@H](C)CCC2CCN(CC(=O)Nc3ccc4c(C5CCC(=O)NC5=O)nn(C)c4c3)CC2)ccc1-c1ccc(N2CCc3cccc(C(=O)Nc4nc5ccccc5s4)c3C2)nc1C(=O)O (stereo in doubt) [Compound 276a, 6-[8-(1,3-benzothiazol-2-ylcarbamoyl)-3,4-dihydro-1H-isoquinolin-2-yl]-3-[4-[(1R)-3-[1-[2-[[3-(2,6-dioxo-3-piperidyl)-1-methyl-indazol-6-yl]amino]-2-oxo-ethyl]-4-piperidyl]-1-methyl-propoxy]-2-methyl-phenyl]pyridine-2-carboxylic acid] | A (Ymin < 50%) | < 100 |  | 
2 | Cc1c(OCC[C@H](C)C2CCN(CC(=O)Nc3cccc4c(C5CCC(=O)NC5=O)nn(C)c34)CC2)cccc1-c1ccc(N2CCc3cccc(C(=O)Nc4nc5ccccc5s4)c3C2)nc1C(=O)O (stereo partly drawn) [Compound 173a, 6-(8-(benzo[d]thiazol-2-ylcarbamoyl)-3,4-dihydroisoquinolin-2(1H)-yl)-3-(3-((3S)-3-(1-(2-((3-(2,6-dioxopiperidin-3-yl)-1-methyl-1H-indazol-7-yl)amino)-2-oxoethyl)piperidin-4-yl)butoxy)-2-methylphenyl)picolinic acid] | B (50% ≤ Ymin < 70%) | < 100 |  | 
3 | Cc1cc(O[C@H]2CC[C@H](CCCN3CCN(c4ccc5c(C6CCC(=O)NC6=O)nn(C)c5c4)CC3)CC2)ccc1-c1ccc(N2CCc3cccc(C(=O)Nc4nc5ccccc5s4)c3C2)nc1C(=O)O (some centres unmarked) [Compound 254a, 6-(8-(benzo[d]thiazol-2-ylcarbamoyl)-3,4-dihydroisoquinolin-2(1H)-yl)-3-(4-(((1s,4r)-4-(3-(4-(3-(2,6-dioxopiperidin-3-yl)-1-methyl-1H-indazol-6-yl)piperazin-1-yl)propyl)cyclohexyl)oxy)-2-methylphenyl)picolinic acid] | A (Ymin < 50%) | < 100 |  | 
4 | Cc1c(OC[C@H]2CCC3(CCN(CC(=O)Nc4ccc5c(C6CCC(=O)NC6=O)nn(C)c5c4)CC3)C2)cccc1-c1ccc(N2CCc3cccc(C(=O)Nc4nc5ccccc5s4)c3C2)nc1C(=O)O (single isomer, unassigned) [Compound 262a] | A (Ymin < 50%) | < 100 |  | 
5 | Cc1c(OCCCC2CCN(CC(=O)Nc3cccc4c(C5CCC(=O)NC5=O)nn(C)c34)CC2)cccc1-c1ccc(N2CCc3cccc(C(=O)Nc4nc5ccccc5s4)c3C2)nc1C(=O)O (centres unmarked) [Compound 158, 6-(8-(benzo[d]thiazol-2-ylcarbamoyl)-3,4-dihydroisoquinolin-2(1H)-yl)-3-(3-(3-(1-(2-((3-(2,6-dioxopiperidin-3-yl)-1-methyl-1H-indazol-7-yl)amino)-2-oxoethyl)piperidin-4-yl)propoxy)-2-methylphenyl)picolinic acid] | B (50% ≤ Ymin < 70%) | 100 to 1000 | C (Ymin ≥ 70%) | < 100
6 | Cc1c(OCCCN2CCN(CC(=O)Nc3ccc4c(C5CCC(=O)NC5=O)nn(C)c4c3)C[C@H]2C(F)(F)F)cccc1-c1ccc(N2CCc3cccc(C(=O)Nc4nc5ccccc5s4)c3C2)nc1C(=O)O (stereo partly drawn) [Compound 245b, 6-(8-(benzo[d]thiazol-2-ylcarbamoyl)-3,4-dihydroisoquinolin-2(1H)-yl)-3-(3-(3-((2S)-4-(2-((3-(2,6-dioxopiperidin-3-yl)-1-methyl-1H-indazol-6-yl)amino)-2-oxoethyl)-2-(trifluoromethyl)piperazin-1-yl)propoxy)-2-methylphenyl)picolinic acid] | B (50% ≤ Ymin < 70%) | < 100 |  | 
7 | Cc1c(O[C@H]2CC[C@H](CCCC(C)N3CCN(c4cccc5c(C6CCC(=O)NC6=O)nn(C)c45)CC3)CC2)cccc1-c1ccc(N2CCc3cccc(C(=O)Nc4nc5ccccc5s4)c3C2)nc1C(=O)O (single isomer, unassigned) [Compound 349a] | A (Ymin < 50%) | < 100 |  | 
8 | Cc1c(OCCCCC2CCN(CC3CCN(c4cccc5c(C6CCC(=O)NC6=O)nn(C)c45)CC3)CC2)cccc1-c1ccc(N2CCc3cccc(C(=O)Nc4nc5ccccc5s4)c3C2)nc1C(=O)O (centres unmarked) [Compound 285, 6-[8-(1,3-benzothiazol-2-ylcarbamoyl)-3,4-dihydro-1H-isoquinolin-2-yl]-3-[3-[4-[1-[[1-[3-(2,6-dioxo-3-piperidyl)-1-methyl-indazol-7-yl]-4-piperidyl]methyl]-4-piperidyl]butoxy]-2-methyl-phenyl]pyridine-2-carboxylic acid] | A (Ymin < 50%) | < 100 |  | 
9 | Cc1c(OCCCN2CCN(CC(=O)Nc3ccc4c(C5CCC(=O)NC5=O)nn(C)c4c3)[C@@H](C(F)(F)F)C2)cccc1-c1ccc(N2CCc3cccc(C(=O)Nc4nc5ccccc5s4)c3C2)nc1C(=O)O (stereo partly drawn) [Compound 187b, 6-(8-(benzo[d]thiazol-2-ylcarbamoyl)-3,4-dihydroisoquinolin-2(1H)-yl)-3-(3-(3-((3R)-4-(2-((3-(2,6-dioxopiperidin-3-yl)-1-methyl-1H-indazol-6-yl)amino)-2-oxoethyl)-3-(trifluoromethyl)piperazin-1-yl)propoxy)-2-methylphenyl)picolinic acid] | A (Ymin < 50%) | < 100 | B (50% ≤ Ymin < 70%) | < 100
10 | Cc1c(OCCCCN2CCC(CN3CCN(c4ccc5c(C6CCC(=O)NC6=O)nn(C)c5c4)CC3)CC2)cccc1-c1ccc(N2CCc3cccc(C(=O)Nc4nc5ccccc5s4)c3C2)nc1C(=O)O (centres unmarked) [Compound 235, 6-[8-(1,3-benzothiazol-2-ylcarbamoyl)-3,4-dihydro-1H-isoquinolin-2-yl]-3-[3-[4-[4-[[4-[3-(2,6-dioxo-3-piperidyl)-1-methyl-indazol-6-yl]piperazin-1-yl]methyl]-1-piperidyl]butoxy]-2-methyl-phenyl]pyridine-2-carboxylic acid] | A (Ymin < 50%) | < 100 |  | 
11 | Cc1c(OC[C@@H]2CCC3(CCN(CC(=O)Nc4ccc5c(C6CCC(=O)NC6=O)nn(C)c5c4)CC3)C2)cccc1-c1ccc(N2CCc3cccc(C(=O)Nc4nc5ccccc5s4)c3C2)nc1C(=O)O (single isomer, unassigned) [Compound 262b] | A (Ymin < 50%) | < 100 |  | 
12 | Cc1c(O[C@H]2CC[C@H](CCCN3CCN(c4ccc5c(C6CCC(=O)NC6=O)nn(C)c5c4)C[C@@H]3C(F)(F)F)CC2)cccc1-c1ccc(N2CCc3cccc(C(=O)Nc4nc5ccccc5s4)c3C2)nc1C(=O)O (stereo partly drawn) [Compound 347a, 6-(8-(benzo[d]thiazol-2-ylcarbamoyl)-3,4-dihydroisoquinolin-2(1H)-yl)-3-(3-(((1s,4r)-4-(3-((2R)-4-(3-(2,6-dioxopiperidin-3-yl)-1-methyl-1H-indazol-6-yl)-2-(trifluoromethyl)piperazin-1-yl)propyl)cyclohexyl)oxy)-2-methylphenyl)picolinic acid] | A (Ymin < 50%) | < 100 |  | 
13 | Cc1c(OCCCC2CCN(CCc3ccc4c(C5CCC(=O)NC5=O)nn(C)c4c3)CC2)cccc1-c1ccc(N2CCc3cccc(C(=O)Nc4nc5ccccc5s4)c3C2)nc1C(=O)O (centres unmarked) [Compound 303, 6-(8-(benzo[d]thiazol-2-ylcarbamoyl)-3,4-dihydroisoquinolin-2(1H)-yl)-3-(3-(3-(1-(2-(3-(2,6-dioxopiperidin-3-yl)-1-methyl-1H-indazol-6-yl)ethyl)piperidin-4-yl)propoxy)-2-methylphenyl)picolinic acid] | A (Ymin < 50%) | < 100 |  | 
14 | Cc1c(O[C@H]2CC[C@H](CCCN3CCN(c4cccc5c(C6CCC(=O)NC6=O)nn(C)c45)[C@H](C)C3)CC2)cccc1-c1ccc(N2CCc3cccc(C(=O)Nc4nc5ccccc5s4)c3C2)nc1C(=O)O (stereo partly drawn) [Compound 274a, 6-(8-(benzo[d]thiazol-2-ylcarbamoyl)-3,4-dihydroisoquinolin-2(1H)-yl)-3-(3-(((1S,4r)-4-(3-((3R)-4-(3-(2,6-dioxopiperidin-3-yl)-1-methyl-1H-indazol-7-yl)-3-methylpiperazin-1-yl)propyl)cyclohexyl)oxy)-2-methylphenyl)picolinic acid] | A (Ymin < 50%) | < 100 |  | 
15 | Cc1c(O[C@H]2CC[C@H](CCC(C)(C)N3CCN(c4ccc5c(C6CCC(=O)NC6=O)nn(C)c5c4)CC3)CC2)cccc1-c1ccc(N2CCc3cccc(C(=O)Nc4nc5ccccc5s4)c3C2)nc1C(=O)O (some centres unmarked) [Compound 340a, 6-(8-(benzo[d]thiazol-2-ylcarbamoyl)-3,4-dihydroisoquinolin-2(1H)-yl)-3-(3-(((1s,4r)-4-(3-(4-(3-(2,6-dioxopiperidin-3-yl)-1-methyl-1H-indazol-6-yl)piperazin-1-yl)-3-methylbutyl)cyclohexyl)oxy)-2-methylphenyl)picolinic acid] | A (Ymin < 50%) | < 100 |  | 
16 | Cc1c(OCC2CC3(CCN(CCN4CCN(c5cccc6c(C7CCC(=O)NC7=O)nn(C)c56)CC4)CC3)C2)cccc1-c1ccc(N2CCc3cccc(C(=O)Nc4nc5ccccc5s4)c3C2)nc1C(=O)O (centres unmarked) [Compound 188, 6-[8-(1,3-benzothiazol-2-ylcarbamoyl)-3,4-dihydro-1H-isoquinolin-2-yl]-3-[3-[[7-[2-[4-[3-(2,6-dioxo-3-piperidyl)-1-methyl-indazol-7-yl]piperazin-1-yl]ethyl]-7-azaspiro[3.5]nonan-2-yl]methoxy]-2-methyl-phenyl]pyridine-2-carboxylic acid] | A (Ymin < 50%) | < 100 |  | 
17 | Cc1c(OCCC[C@@H]2CCCN(CC(=O)Nc3cccc4c(C5CCC(=O)NC5=O)nn(C)c34)C2)cccc1-c1ccc(N2CCc3cccc(C(=O)Nc4nc5ccccc5s4)c3C2)nc1C(=O)O (single isomer, unassigned) [Compound 210a] | B (50% ≤ Ymin < 70%) | < 100 |  | 
